Assay results as given in US11732003B2, “Mechanical method of maintaining narrow residence time distributions in continuous flow systems” (priority 2017, dated 2023).

System: Phi6
Assay: Static detergent-based virus inactivation, plaque assay for infectivity
Type: cell-based, bacteriophage virus
Experimental: The purpose of this study was to examine detergent-based virus inactivation kinetics. In this representative experiment, two different concentrations (0.1% and 1.0% v/v) of a detergent, Triton X-100, were used to inactivate a bacteriophage virus, Phi6.
The virus spike was added and vortexed to ensure a well-mixed system. […] Detergent was added to reach the desired concentrations of 0.1% and 1.0% v/v. At various time points, a sample was removed and quenched by adding it to buffer at a 1:1000 dilution ratio. The tubes were vortexed after the detergent addition.

Triton X-100
Phi6 LRV (0.1% v/v Triton X-100, mAb 15 mg/mL, inactivation time 1 min): ≥5.2
Phi6 LRV (0.1% v/v Triton X-100, mAb 15 mg/mL, inactivation time 2 min): ≥5.2
Phi6 LRV (0.1% v/v Triton X-100, mAb 15 mg/mL, inactivation time 3 min): ≥5.2
Phi6 LRV (0.1% v/v Triton X-100, mAb 15 mg/mL, inactivation time 4 min): ≥5.2
Phi6 LRV (0.1% v/v Triton X-100, mAb 15 mg/mL, inactivation time 5 min): ≥5.2
Phi6 LRV (0.1% v/v Triton X-100, mAb 15 mg/mL, inactivation time 15 min): ≥5.2
Phi6 LRV (0.1% v/v Triton X-100, mAb 15 mg/mL, inactivation time 30 min): ≥5.2
Phi6 LRV (1.0% v/v Triton X-100, mAb 15 mg/mL, inactivation time 1 min): ≥6.2
Phi6 LRV (1.0% v/v Triton X-100, mAb 15 mg/mL, inactivation time 2 min): ≥6.2
Phi6 LRV (1.0% v/v Triton X-100, mAb 15 mg/mL, inactivation time 3 min): ≥6.2
Phi6 LRV (1.0% v/v Triton X-100, mAb 15 mg/mL, inactivation time 4 min): ≥6.2
Phi6 LRV (1.0% v/v Triton X-100, mAb 15 mg/mL, inactivation time 5 min): ≥6.2
Phi6 LRV (1.0% v/v Triton X-100, mAb 15 mg/mL, inactivation time 15 min): ≥6.2
Phi6 LRV (1.0% v/v Triton X-100, mAb 15 mg/mL, inactivation time 30 min): ≥6.2
